{"source": "patent US20210220455A1", "about": "“COMPOSITIONS AND METHODS FOR PERSONALIZED NEOPLASIA VACCINES” (The Broad Institute, Inc., priority 2013, published 2021)", "origin": "cited, not measured here", "key": {"[1]": {"test_system": "ovarian carcinoma patients", "details": "cited from earlier work"}, "healthy human volunteers": {"test_system": "healthy human volunteers", "details": "cited from earlier work"}}}
{"substance": "Polyinosinic-Polycytidylic Acid-poly-L-lysine Carboxymethylcellulose [poly-ICLC]", "values": [{"measurement": "generation of NY-ESO-1-specific CD4+ and CD8+ T-cell and antibody responses", "setting": "[1]; 1.4 mg poly-ICLC and Montanide added to OLP vs OLP alone or OLP and Montanide", "result": "markedly enhanced"}, {"measurement": "patients showing induction of CD4+ and CD8+ T cell and antibody responses to the peptide", "setting": "[1]; poly-ICLC with NY-ESO-1 peptide vaccine and Montanide", "result": "> 90", "unit": "%"}, {"measurement": "differentially expressed genes versus placebo", "setting": "healthy human volunteers; 8 volunteers, one single s.c. administration vs 4 placebo subjects", "result": "up to 212 genes"}, {"measurement": "safety in human volunteer study", "setting": "healthy human volunteers; human, in vivo", "result": "safe"}]}
